Data on three molecules can be found in US20100331297A1, “MODULATION OF PROTEIN TRAFFICKING” (FOLDRX PHARMACEUTICALS, INC., priority 2007, published 2010).

Holding throughout (assay type): cell-based
Data set [1] concerns ypt1^ts cells. The data set can be described thus: Rescue of growth of ypt1^ts mutant yeast (OD600). Conditions: Saccharomyces cerevisiae, read-out: Ypt1-ts MRC (Minimum Rescue Concentration), ypt1^ts cells, 35° C. and 37° C., OD600; multiple results separated by a comma. From the text:
The activity of the compounds as modulators of protein trafficking may be measured in the assays described herein that evaluate the ability of a compound to rescue an impairment in protein trafficking. For example, the yeast mutant cell line ypt1^ts can be used to identify compounds that rescue cells from the lethal phenotype of a mutant YPT1 allele (see, e.g., Examples and Schmitt et al. (1988) Cell 53:635-47). The activity may be measured, for example, in a whole yeast cell assay using 384-well screening protocol and an optical density measurement.
The yeast mutant cell line ypt1^ts suppresses, in a temperature dependent fashion, the dominant-lethal phenotype of a mutant YPT1 allele (Schmitt et al. (1988) Cell 53:635-47). The yeast mutant cell line ypt1^ts contains an allele of YPT1 that has two point mutations: one that changes an asparagine at position 121 to a isoleucine (N121I) and another that changes an alanine at position 161 to a valine (A161V). The N121I mutation causes dominant lethality by itself, but lethality is suppressed by the second mutation, resulting in a recessive loss of function phenotype at the restrictive temperatures. ypt1^ts cells grow normally at temperatures up to 25° C., but are growth arrested at 37° C. (Id.).
Compounds were screened to assess their ability to restore growth of ypt1^ts cells. The effect of the compounds was measured on ypt1^ts cells cultured at room temperature (permissive temperature), 37° C. (non-permissive temperature), and 35° C. (semi-permissive temperature).
To determine if the test compounds could rescue the ypt1^ts mutant phenotype, ypt1^ts cells were grown overnight in synthetic complete (SC) media supplemented with 2% glucose at room temperature. Log phase cells were diluted into SC 2% glucose media to an OD600 of 0.003. 100 μL of this culture was then aliquoted into each well of 96-well flat bottom microtiter plates. 1 μL of the test compounds dissolved in DMSO (at a concentration range from 5 mM-0.005 mM) or of DMSO alone was added to each well (50 μM-0.05 μM final concentration in 1% DMSO). Plates were mixed by vortexing and incubated at 35° C. and 37° C. Compound rescue of the ypt1^ts temperature sensitive defect was assessed by measuring the OD600 (optical density at 600 nm; cell growth) of the cultures. Plates incubated at 35° C. were measured at 24 and 40 hours incubation time while plates grown at 37° C. were measured after 40 hours of incubation.
Assays monitoring the rescue of ypt1^ts mutants were performed using a vehicle, a positive control (calcium), and the compounds identified in Table II. Results in Table II corresponding to an MRC (Minimum Rescue Concentration) for ypt1^ts of greater than or equal to 50 micromolar are labeled +; of an MRC for ypt1^ts of 10-50 micromolar are labeled ++; and of an MRC for ypt1^ts of less than 10 micromolar are labeled +++. Multiple results for a particular compound are separated by a comma.

Data set [2] concerns the target T1, ΔF508 CFTR (Homo sapiens, UniProt P13569, DEL508-508). The data set can be described thus: Stabilization of ΔF508 CFTR in CFBE cells (western blot, densitometry). Conditions: 16 hours at 37° C., 1.25-10 μM (compound 25), 1-10 μM (compound 5). From the text:
In addition, efficacy of a compound can be evaluated before (first in time), concomitantly or subsequently to the above-mentioned test modalities by monitoring, e.g., (i) modulation (e.g., an improvement) of the stability of a trafficking defective protein, (ii) modulation (e.g., an improvement) of proper, physiological trafficking of the trafficking defective protein, or (iii) modulation (e.g., a restoration) in one or more functions of a trafficking defective protein. For example, in some cases, proteins (e.g., protein mutants such as ΔF508 CFTR) are prematurely degraded. Thus, the efficacy of a given compound to modulate protein trafficking can be determined by monitoring the stability of a protein in the presence as compared to the absence of the compound. For example, cells expressing a trafficking defective protein (e.g., expressing endogenously or expressing an exogenous transgene encoding a trafficking defective protein such as ΔF508 CFTR) can be cultured in the presence or absence of a compound for at least 1 hour (e.g., at least 2 hours, at least 4 hours, at least 6 hours, at least 8 hours, at least 12 hours, at least 16 hours, at least 24 hours, at least 36 hours, or at least 48 hours). Cell lysates can be prepared from the different populations of cells, suspended in Laemmli buffer (with or without reducing agent) and subjected to sodium dodecyl sulfate-polyacrylamide gel electrophoresis (SDS-PAGE). Using antibodies that specifically recognize the trafficking defective protein (e.g., CFTR), the amount of the protein in the presence as compared to in the absence of a compound can be determined by western or dot-blotting techniques. […] Where a modified state (e.g., glycosylation or phosphorylation) of a protein is indicative of increased stability, a change in the modified state of a protein can also be used to determine if a compound stabilizes the trafficking defective protein. For example, the amount of glycosylated CFTR (e.g., ΔF508 CFTR) can be assessed in the presence as compared to the absence of a compound.
The compounds can be tested for their ability to stabilize ΔF508 CTFR. CFBE cells, a cell line generated by transformation of cystic fibrosis tracheo-bronchial cells (ΔF508 CTFR homozygous) with SV40 (Bruscia et al. (2002) Gene Ther. 9(11):683-685), can be cultured with 10 μM of the selected compounds, or 10 μM VRT-325 for 16 hours at 37° C. (VRT-325 is described in, e.g., Van Goor et al. (2006) Am. J. Physiol. Lung Cell Mol. Physiol. 290:L1117-L1130). A population of cells can also be cultured with the dimethyl sulfoxide (DMSO) solvent as a control.
Following incubation, cells were lysed, solubilized in Laemmli buffer, and subjected to SDS-PAGE. CFTR protein were visualized by western blotting using an antibody specific for CFTR. Culturing CFBE cells with compound 25 (see Table I for structure) increased the amount of cellular ΔF508 CFTR protein.
The effect of different concentrations of compound 25 on ΔF508 CFTR was tested in a dose response experiment. […] The relative amounts of glysosylated and unglycosylated ΔF508 CFTR protein were visualized by western blotting (FIG. 10A), and the band intensities wer quantitated by scanning and densitometry (FIG. 10B). […] The relative amounts of glysosylated and unglycosylated ΔF508 CFTR protein were visualized by western blotting (FIG. 11A), and the band intensities wer quantitated by scanning and densitometry (FIG. 11B).

Data set [3] deals with T1, ΔF508 CFTR. The data set can be described thus: Corrector activity, YFP halide (iodide) quenching assay in FRT cells expressing ΔF508 CFTR. Details: expressed in transfected cells; host or cells: Fischer rat thyroid (FRT) cells. Conditions: FRT cells ΔF508 CFTR/YFP, 24 hours with compound at 37° C., forskolin and genistein; read-out: Corrector EC50. An outline of the steps: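 FRT cells co-expressing ΔF508 CFTR and halide-sensitive YFP were incubated 24 h at 37° C with compounds, then stimulated 30 min at 37° C in PBS with forskolin and genistein. Endpoint fluorescence after iodide injection was normalized to initial reading; EC50 from 4-parameter fit with bottom constrained to DMSO control.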

Data set [4] deals with T1, ΔF508 CFTR. Description: Potentiator activity, YFP halide (iodide) quenching assay in FRT cells expressing ΔF508 CFTR, 27° C. pre-incubation. On the set-up: expressed in transfected cells; host or cells: Fischer rat thyroid (FRT) cells. Conditions: FRT cells ΔF508 CFTR/YFP, 24 hours at 27° C., compound with forskolin 30 min. In outline:
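FRT cells stably co-expressing ΔF508 CFTR and halide-sensitive YFP, grown 24 h at 37° C. then 24 h at 27° C. to raise surface CFTR. Compounds in PBS with forskolin, 30 min at 37° C.; iodide injected and YFP quenching (ex 485/em 530 nm) followed. EC50 from normalized endpoint fluorescence.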

The test system of data set [5] is TS217 cells. The data set can be described thus: Rescue of cell viability from α-synuclein-induced cytotoxicity (cellular ATP, […]). Conditions: tetracycline 5 days, 3 μM concentration, P<0.02. How it is done: Treatment of TS217 cells with 0.1 μg/mL tetracycline for three to six days induces expression of α-synuclein, which can be cytotoxic. […] After the five day treatment, cells were lysed and assayed for intracellular ATP concentration as a function of cell viability. The relative viability of the cells was assessed by measuring the cellular ATP level in cell lysates using a […]® Plus Bioassay kit (Cambrex, Rockland, Me.). Relative cell viability was calculated as the ratio of induced cells to control cells (cells not treated with tetracycline), as an indication of α-synuclein-induced cytotoxicity. […] By contrast, cells treated with compound 90 at 3 μM concentration reduced the α-synuclein-induced cytotoxicity by 45% (P<0.02) as compared to the control wells lacking the compound. Thus, compound 90 rescues cell viability from α-synuclein-induced cytotoxicity.

The structures appear in SMILES notation. pEC50: −log10 of the molar value.

T1 sequence (P13569 with tags, fused parts or gaps DEL508-508): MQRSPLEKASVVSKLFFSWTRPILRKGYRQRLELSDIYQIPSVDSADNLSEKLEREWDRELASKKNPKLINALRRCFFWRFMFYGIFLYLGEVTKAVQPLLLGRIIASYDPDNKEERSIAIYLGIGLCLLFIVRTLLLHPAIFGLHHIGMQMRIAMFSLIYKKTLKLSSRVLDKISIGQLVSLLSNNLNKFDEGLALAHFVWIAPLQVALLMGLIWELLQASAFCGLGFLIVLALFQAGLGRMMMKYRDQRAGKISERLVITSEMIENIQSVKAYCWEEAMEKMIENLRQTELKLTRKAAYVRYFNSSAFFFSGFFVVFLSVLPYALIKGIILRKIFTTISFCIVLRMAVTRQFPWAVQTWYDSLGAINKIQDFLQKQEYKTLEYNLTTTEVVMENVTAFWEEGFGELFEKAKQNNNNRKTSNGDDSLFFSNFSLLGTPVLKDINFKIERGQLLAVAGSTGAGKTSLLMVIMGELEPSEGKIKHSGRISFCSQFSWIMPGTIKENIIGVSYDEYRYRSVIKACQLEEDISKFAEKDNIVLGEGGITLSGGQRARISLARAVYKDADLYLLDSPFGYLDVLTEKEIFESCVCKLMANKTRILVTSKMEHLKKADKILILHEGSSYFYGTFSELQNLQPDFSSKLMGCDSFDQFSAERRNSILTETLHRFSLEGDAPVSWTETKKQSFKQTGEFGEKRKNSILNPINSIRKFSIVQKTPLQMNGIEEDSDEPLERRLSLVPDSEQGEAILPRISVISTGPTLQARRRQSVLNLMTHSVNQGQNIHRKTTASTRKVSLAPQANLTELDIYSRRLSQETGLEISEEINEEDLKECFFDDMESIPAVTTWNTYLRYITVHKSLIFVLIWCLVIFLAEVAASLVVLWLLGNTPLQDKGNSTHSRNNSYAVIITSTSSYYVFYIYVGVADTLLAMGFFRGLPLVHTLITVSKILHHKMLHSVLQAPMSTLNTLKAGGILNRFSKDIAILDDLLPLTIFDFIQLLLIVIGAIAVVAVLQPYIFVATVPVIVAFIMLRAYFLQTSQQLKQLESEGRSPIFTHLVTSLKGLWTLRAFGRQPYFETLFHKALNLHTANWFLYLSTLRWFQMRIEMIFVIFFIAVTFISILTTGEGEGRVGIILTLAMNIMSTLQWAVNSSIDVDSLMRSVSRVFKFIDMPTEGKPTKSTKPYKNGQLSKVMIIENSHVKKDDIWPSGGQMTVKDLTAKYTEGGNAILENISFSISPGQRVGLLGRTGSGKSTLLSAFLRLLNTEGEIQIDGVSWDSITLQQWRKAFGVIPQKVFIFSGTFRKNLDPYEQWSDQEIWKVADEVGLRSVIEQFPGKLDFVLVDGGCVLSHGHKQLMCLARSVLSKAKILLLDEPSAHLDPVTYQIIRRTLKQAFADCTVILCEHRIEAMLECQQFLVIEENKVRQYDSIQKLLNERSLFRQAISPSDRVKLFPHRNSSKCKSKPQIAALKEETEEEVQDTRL

As for `CC(C)(C)n1nc(Cc2cccc3ccccc23)c2c(N)ncnc21` [compound 5], the minimal effective concentration in data set [1] is < 10 µM. Further, in data set [2], the “glycosylated (Band B) ΔF508 CFTR protein vs absence of compound, dose response” value is on record as “increased”. In data set [3], the pEC50 (usually the EC50 on a negative log10 scale, so that one unit is a factor of ten) was < 4.82.
For `CCn1cc(-c2ccc(C)cc2)c2c(N)ncnc21` [compound 86], the minimal effective concentration in data set [1] lay in the range of 10 to 50 µM. For the same molecule, the results for the pEC50 in data set [3] and in data set [4] were 5.30 to 5.70 and 5.00 to 5.30, respectively.
For `CC(C)(C)n1nc(Oc2ccccc2)c2c(N)ncnc21` [compound 90, 1-tert-Butyl-3-phenoxy-1H-pyrazolo[3,4-d]pyrimidin-4-ylamine], the minimal effective concentration in data set [1] was > 50 µM. The “reduction of α-synuclein-induced cytotoxicity compared to control wells” value in data set [5] was found to be 45%. In addition, the values for the pEC50 in data set [3] and in data set [4] were < 4.82 and > 5.70, respectively.
